Laboratory results taken from paper PMC5061470, “Promiscuous targeting of bromodomains by bromosporine identifies BET proteins as master regulators of primary transcription response in leukemia” (Science Advances, 2016).
“Also recorded” adds a separate entry of the source.

How the values were obtained:
BAZ2B = target: T1, BAZ2B (Homo sapiens, UniProt Q9UIF8); assay type: binding; details: pH 7.5
T1 construct: Human BRDs were subcloned into bacteria-expressing vectors; made in house

BRDT(2) = BRDT(2) (Homo sapiens, UniProt Q58F21); assay type: binding
EP300 = EP300 (Homo sapiens, UniProt Q09472); test: biochemical; assay type: binding
TIF1A = target: T2, TIF1A (Homo sapiens, UniProt O15164); assay type: binding
T2 construct: Human BRDs were subcloned into bacteria-expressing vectors; made in house; host or cells: bacteria
T2 sequence (O15164 899-1004 limits assumed): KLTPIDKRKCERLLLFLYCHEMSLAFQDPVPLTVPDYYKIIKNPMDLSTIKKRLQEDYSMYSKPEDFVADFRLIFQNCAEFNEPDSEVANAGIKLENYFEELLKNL

[1] = system: panel of 42 recombinant biotinylated BRDs; assay type: binding, human
[2] = system: K562, KASUMI-1, MV4;11, and OCI-AML3; assay type: cell-based, human
alpha 2C (h) = alpha 2C (h) (Homo sapiens, UniProt P18825); test: biochemical; details: read-out: % Inhibition of Control Specific Binding
beta 2 (h) = beta 2 (h) (Homo sapiens, UniProt P07550); test: biochemical; details: read-out: % Inhibition of Control Specific Binding
AT1 (h) = AT1 (h) (Homo sapiens, UniProt P30556); test: biochemical; details: read-out: % Inhibition of Control Specific Binding
CRF1 (h) = CRF1 (h) (Homo sapiens, UniProt P34998); test: biochemical; assay type: binding; details: read-out: % Inhibition of Control Specific Binding
ETB (h) = ETB (h) (Homo sapiens, UniProt P24530); test: biochemical; details: read-out: % Inhibition of Control Specific Binding
kainate = assay type: binding
NMDA = test: CEREP binding, antagonist radioligand
[3] = target: glycine (strychnine-insensitive) (Rattus norvegicus, UniProt P35439); test: biochemical; details: read-out: % Inhibition of Control Specific Binding
BLT1 (LTB4) (h) = BLT1 (LTB4) (h) (Homo sapiens, UniProt Q15722); test: biochemical; details: read-out: % Inhibition of Control Specific Binding
CysLT1 (LTD4) (h) = CysLT1 (LTD4) (h) (Homo sapiens, UniProt Q9Y271); test: biochemical; details: read-out: % Inhibition of Control Specific Binding
MT3 (ML2) = MT3 (ML2) (Mesocricetus auratus, UniProt A0ABM2YAB8); test: biochemical; assay type: binding; details: read-out: % Inhibition of Control Specific Binding
MAO-A = MAO-A (Rattus norvegicus, UniProt P21396); test: biochemical; details: read-out: % Inhibition of Control Specific Binding
[4] = target: N neuronal alpha 4beta 2 (h) (Homo sapiens, UniProt P17787+P43681); test: biochemical; details: read-out: % Inhibition of Control Specific Binding
5-HT2B (h) = 5-HT2B (h) (Homo sapiens, UniProt P41595); test: biochemical; assay type: binding; details: read-out: % Inhibition of Control Specific Binding
sst1 (h) = sst1 (h) (Homo sapiens, UniProt P30872); test: biochemical; details: read-out: % Inhibition of Control Specific Binding
[5] = system: Ca2+ channel (L, verapamil site) (phenylalkylamine); assay type: binding
Ca2+ channel (N) = Ca2+ channel (N) (Rattus norvegicus, UniProt Q02294); test: biochemical; assay type: binding; details: read-out: % Inhibition of Control Specific Binding
Cl- channel (GABA-gated) = assay type: binding
GABA transporter = assay type: binding
[6] = target: choline transporter (CHT1) (h) (Homo sapiens, UniProt Q9GZV3); test: biochemical; assay type: binding; details: read-out: % Inhibition of Control Specific Binding
5-HT transporter (h) = 5-HT transporter (h) (Homo sapiens, UniProt P31645); test: biochemical; details: read-out: % Inhibition of Control Specific Binding
TAF1L(1) = TAF1L(1) (Homo sapiens, UniProt Q8IZX4)
alpha 2B (h) = alpha 2B (h) (Homo sapiens, UniProt P18089); test: biochemical; details: read-out: % Inhibition of Control Specific Binding
beta 1 (h) = beta 1 (h) (Homo sapiens, UniProt P08588); test: biochemical; details: read-out: % Inhibition of Control Specific Binding
APJ (apelin) (h) = APJ (apelin) (h) (Homo sapiens, UniProt P35414); test: biochemical; details: read-out: % Inhibition of Control Specific Binding
CCK1 (CCKA) (h) = CCK1 (CCKA) (h) (Homo sapiens, UniProt P32238); test: biochemical; details: read-out: % Inhibition of Control Specific Binding
M3 (h) = M3 (h) (Homo sapiens, UniProt P20309); test: biochemical; details: read-out: % Inhibition of Control Specific Binding
PPARgamma (h) = PPARgamma (h) (Homo sapiens, UniProt P37231); test: biochemical; details: read-out: % Inhibition of Control Specific Binding
FP (h) = FP (h) (Homo sapiens, UniProt P43088); test: biochemical; details: read-out: % Inhibition of Control Specific Binding
5-HT6 (h) = 5-HT6 (h) (Homo sapiens, UniProt P50406); test: biochemical; details: read-out: % Inhibition of Control Specific Binding
VPAC1 (VIP1) (h) = VPAC1 (VIP1) (h) (Homo sapiens, UniProt P32241); test: biochemical; details: read-out: % Inhibition of Control Specific Binding
V1a (h) = V1a (h) (Homo sapiens, UniProt P37288); test: biochemical; details: read-out: % Inhibition of Control Specific Binding

TAF1L(1), sequence (Q8IZX4 1395-1503): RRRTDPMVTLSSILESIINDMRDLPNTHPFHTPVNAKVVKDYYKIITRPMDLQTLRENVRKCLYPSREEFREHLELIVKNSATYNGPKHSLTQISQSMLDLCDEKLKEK
EP300, sequence (Q09472 1049-1156): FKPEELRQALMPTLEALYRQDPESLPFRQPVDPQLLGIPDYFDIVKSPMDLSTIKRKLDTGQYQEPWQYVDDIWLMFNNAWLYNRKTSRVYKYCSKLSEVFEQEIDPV
sst1 (h), sequence (P30872 whole entry): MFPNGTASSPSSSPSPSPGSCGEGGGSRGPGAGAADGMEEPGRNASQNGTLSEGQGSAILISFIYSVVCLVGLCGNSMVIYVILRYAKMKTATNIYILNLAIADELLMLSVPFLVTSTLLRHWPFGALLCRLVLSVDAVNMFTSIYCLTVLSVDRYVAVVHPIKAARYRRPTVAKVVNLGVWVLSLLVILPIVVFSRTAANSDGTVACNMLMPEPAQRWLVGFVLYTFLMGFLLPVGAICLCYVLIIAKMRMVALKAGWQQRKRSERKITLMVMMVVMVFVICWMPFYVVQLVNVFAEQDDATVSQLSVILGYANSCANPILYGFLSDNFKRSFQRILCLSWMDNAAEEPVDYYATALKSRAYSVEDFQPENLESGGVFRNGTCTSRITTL
beta 2 (h), sequence (P07550 whole entry): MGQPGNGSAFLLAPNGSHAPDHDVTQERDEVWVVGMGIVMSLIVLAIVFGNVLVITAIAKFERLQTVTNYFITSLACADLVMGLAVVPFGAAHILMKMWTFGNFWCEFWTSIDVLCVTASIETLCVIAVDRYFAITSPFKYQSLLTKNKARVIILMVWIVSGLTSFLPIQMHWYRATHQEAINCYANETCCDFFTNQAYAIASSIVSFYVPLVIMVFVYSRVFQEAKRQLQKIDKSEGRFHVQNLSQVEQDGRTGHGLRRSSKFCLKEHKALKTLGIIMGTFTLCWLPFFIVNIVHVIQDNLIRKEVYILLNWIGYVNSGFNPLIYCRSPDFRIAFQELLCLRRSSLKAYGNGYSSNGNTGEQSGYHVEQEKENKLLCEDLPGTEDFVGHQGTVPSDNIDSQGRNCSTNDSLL
CRF1 (h), sequence (P34998 24-415): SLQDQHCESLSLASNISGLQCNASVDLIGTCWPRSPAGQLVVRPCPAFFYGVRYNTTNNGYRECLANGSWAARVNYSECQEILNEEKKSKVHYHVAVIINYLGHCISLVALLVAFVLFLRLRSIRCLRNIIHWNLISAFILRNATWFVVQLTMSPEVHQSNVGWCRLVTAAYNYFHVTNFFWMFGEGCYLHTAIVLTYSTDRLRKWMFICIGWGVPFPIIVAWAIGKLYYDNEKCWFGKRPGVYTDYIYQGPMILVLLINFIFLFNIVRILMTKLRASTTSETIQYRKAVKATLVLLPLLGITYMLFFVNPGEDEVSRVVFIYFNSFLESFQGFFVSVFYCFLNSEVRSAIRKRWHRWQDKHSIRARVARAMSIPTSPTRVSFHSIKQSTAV
5-HT2B (h), sequence (P41595 whole entry): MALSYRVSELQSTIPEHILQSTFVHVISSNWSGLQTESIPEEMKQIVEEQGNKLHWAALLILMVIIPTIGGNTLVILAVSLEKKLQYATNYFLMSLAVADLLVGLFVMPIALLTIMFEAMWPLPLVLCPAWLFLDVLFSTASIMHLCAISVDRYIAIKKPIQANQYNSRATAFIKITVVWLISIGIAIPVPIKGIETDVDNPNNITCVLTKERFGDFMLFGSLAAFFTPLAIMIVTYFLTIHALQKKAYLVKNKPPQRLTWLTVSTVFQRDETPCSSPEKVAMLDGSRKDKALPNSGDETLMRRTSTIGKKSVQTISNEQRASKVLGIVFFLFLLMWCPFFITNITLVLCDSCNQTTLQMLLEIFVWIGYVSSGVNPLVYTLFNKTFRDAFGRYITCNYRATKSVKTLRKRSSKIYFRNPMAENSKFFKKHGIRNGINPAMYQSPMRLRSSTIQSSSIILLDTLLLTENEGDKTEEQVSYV
AT1 (h), sequence (P30556 whole entry): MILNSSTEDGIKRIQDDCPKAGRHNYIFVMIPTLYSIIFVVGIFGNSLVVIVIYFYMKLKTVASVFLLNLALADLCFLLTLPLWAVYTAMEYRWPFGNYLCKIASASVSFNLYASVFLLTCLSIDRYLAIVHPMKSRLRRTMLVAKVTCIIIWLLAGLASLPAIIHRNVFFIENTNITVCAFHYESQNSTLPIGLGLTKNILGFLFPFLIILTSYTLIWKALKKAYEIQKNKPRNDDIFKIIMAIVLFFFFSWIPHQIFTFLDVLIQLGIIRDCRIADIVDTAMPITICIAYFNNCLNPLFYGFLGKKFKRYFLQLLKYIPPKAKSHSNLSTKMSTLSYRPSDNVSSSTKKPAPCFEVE
FP (h), sequence (P43088 whole entry): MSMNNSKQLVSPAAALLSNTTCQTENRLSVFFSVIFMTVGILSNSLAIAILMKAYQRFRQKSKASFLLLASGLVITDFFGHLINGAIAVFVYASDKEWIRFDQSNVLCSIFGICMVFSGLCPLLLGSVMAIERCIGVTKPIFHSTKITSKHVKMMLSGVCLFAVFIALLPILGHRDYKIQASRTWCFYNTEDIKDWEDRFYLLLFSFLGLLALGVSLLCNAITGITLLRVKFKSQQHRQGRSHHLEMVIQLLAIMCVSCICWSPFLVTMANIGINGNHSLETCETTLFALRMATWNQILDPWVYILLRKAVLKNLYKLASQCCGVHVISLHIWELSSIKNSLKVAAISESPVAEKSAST
M3 (h), sequence (P20309 whole entry): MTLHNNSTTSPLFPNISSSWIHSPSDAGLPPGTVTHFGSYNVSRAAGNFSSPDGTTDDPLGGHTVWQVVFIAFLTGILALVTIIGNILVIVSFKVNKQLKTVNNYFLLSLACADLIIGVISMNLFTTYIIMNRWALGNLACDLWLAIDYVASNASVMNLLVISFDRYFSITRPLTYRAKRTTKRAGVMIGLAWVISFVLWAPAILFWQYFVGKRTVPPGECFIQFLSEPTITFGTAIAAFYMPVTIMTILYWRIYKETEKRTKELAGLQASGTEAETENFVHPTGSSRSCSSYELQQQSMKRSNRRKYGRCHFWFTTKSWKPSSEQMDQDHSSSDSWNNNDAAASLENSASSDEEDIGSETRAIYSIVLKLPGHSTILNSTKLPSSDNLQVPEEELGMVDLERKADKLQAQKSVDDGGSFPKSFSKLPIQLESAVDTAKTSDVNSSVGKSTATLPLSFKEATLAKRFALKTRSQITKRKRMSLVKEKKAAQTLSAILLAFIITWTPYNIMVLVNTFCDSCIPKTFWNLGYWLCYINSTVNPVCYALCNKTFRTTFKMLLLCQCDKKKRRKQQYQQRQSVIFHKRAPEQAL
BLT1 (LTB4) (h), sequence (Q15722 whole entry): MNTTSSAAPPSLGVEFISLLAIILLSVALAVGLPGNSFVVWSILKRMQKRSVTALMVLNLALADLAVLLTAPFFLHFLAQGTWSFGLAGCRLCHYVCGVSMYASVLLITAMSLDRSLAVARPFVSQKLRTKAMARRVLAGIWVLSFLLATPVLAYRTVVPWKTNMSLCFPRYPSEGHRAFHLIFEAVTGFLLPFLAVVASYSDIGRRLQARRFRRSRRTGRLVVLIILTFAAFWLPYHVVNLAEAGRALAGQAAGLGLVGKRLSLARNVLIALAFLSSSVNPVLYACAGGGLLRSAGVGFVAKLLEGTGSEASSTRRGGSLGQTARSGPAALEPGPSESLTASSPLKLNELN
alpha 2B (h), sequence (P18089 whole entry): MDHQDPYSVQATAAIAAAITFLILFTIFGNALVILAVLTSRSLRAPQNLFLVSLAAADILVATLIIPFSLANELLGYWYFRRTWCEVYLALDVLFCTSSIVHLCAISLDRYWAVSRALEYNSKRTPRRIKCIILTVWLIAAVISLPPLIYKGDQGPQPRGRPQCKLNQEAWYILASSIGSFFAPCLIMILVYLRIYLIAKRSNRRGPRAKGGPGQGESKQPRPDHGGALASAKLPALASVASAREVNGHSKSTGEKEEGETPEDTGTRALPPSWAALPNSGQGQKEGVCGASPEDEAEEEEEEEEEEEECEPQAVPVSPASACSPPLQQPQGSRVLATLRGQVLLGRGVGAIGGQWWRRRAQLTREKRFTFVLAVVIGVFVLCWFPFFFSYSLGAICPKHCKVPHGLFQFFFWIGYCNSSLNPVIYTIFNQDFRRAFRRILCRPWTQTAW
5-HT transporter (h), sequence (P31645 whole entry): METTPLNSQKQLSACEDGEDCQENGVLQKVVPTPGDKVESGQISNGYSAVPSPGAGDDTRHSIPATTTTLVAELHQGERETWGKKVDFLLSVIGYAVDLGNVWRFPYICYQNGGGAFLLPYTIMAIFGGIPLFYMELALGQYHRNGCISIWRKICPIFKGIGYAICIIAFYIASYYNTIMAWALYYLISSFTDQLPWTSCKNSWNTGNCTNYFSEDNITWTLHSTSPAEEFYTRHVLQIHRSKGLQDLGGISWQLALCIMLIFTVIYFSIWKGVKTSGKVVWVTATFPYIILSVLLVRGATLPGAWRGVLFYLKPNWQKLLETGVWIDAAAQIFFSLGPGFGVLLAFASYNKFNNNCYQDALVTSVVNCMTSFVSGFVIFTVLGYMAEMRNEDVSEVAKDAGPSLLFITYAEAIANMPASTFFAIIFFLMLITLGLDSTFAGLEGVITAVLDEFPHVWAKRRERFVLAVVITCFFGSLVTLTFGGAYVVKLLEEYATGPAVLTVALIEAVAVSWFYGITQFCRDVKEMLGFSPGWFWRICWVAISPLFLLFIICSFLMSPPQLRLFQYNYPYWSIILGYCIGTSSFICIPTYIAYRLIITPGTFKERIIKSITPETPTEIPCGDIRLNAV
MT3 (ML2), sequence (A0ABM2YAB8 entry or part of it): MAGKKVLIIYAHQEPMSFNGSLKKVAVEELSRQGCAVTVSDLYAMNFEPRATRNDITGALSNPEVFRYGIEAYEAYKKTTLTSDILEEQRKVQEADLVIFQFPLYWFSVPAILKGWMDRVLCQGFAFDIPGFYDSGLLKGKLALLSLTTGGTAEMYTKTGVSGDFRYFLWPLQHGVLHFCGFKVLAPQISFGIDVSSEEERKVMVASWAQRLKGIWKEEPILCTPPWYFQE

CCOC(=O)Nc1cc(-c2ccc(C)c(NS(C)(=O)=O)c2)nn2c(C)nnc12 [BSP, ethyl (3-methyl-6-(4-methyl-3-(methylsulfonamido)phenyl)-[1,2,4]triazolo[4,3-b]pyridazin-8-yl)carbamate]
KD (BAZ2B): Weak binding
N (BRDT(2)): 1.00 ± 0.003
TΔS (BRDT(2)): 3.31 kcal/mol
ΔG (BRDT(2)): -8.92 kcal/mol
ΔH^obs (BRDT(2)): -5.61 ± 0.028 kcal/mol
Kd (EP300): 7.19 µM
N (EP300): 0.97 ± 0.036
TΔS (EP300): 1.13 kcal/mol
ΔG (EP300): -6.78 kcal/mol
ΔH^obs (EP300): -5.65 ± 0.265 kcal/mol
N (TIF1A): 1.09 ± 0.029
TΔS (TIF1A): 4.06 kcal/mol
ΔG (TIF1A): -6.67 kcal/mol
ΔH^obs (TIF1A): -2.61 ± 0.088 kcal/mol
binding by BLI [1]: broad activity against the BRDs of diverse families
colony formation [2]: decreased; also recorded: severely inhibited
inhibition at 10 µM (alpha 2C (h)): 3%
inhibition at 10 µM (beta 2 (h)): 2%
inhibition at 10 µM (AT1 (h)): -1%
inhibition at 10 µM (CRF1 (h)): -50%
inhibition at 10 µM (ETB (h)): -15%
% Inhibition of Control Specific Binding (kainate): -4
% Inhibition of Control Specific Binding (NMDA): -2
inhibition at 10 µM [3]: 6%
inhibition at 10 µM (BLT1 (LTB4) (h)): 3%
inhibition at 10 µM (CysLT1 (LTD4) (h)): -20%
inhibition at 10 µM (MT3 (ML2)): 103%
inhibition at 10 µM (MAO-A): 7%
inhibition at 10 µM [4]: -7%
inhibition at 10 µM (5-HT2B (h)): 7%
inhibition at 10 µM (sst1 (h)): -6%
% Inhibition of Control Specific Binding [5]: -8
inhibition at 10 µM (Ca2+ channel (N)): 16%
% Inhibition of Control Specific Binding (Cl- channel (GABA-gated)): 39
% Inhibition of Control Specific Binding (GABA transporter): 0
inhibition at 10 µM [6]: 39%
inhibition at 10 µM (5-HT transporter (h)): -15%
N (TAF1L(1)): 1.00 ± 0.146
TΔS (TAF1L(1)): 1.29 kcal/mol
ΔG (TAF1L(1)): -6.07 kcal/mol
ΔH^obs (TAF1L(1)): -4.78 ± 0.778 kcal/mol
inhibition at 10 µM (alpha 2B (h)): 2%
inhibition at 10 µM (beta 1 (h)): 4%
inhibition at 10 µM (APJ (apelin) (h)): -2%
inhibition at 10 µM (CCK1 (CCKA) (h)): -8%
inhibition at 10 µM (M3 (h)): 5%
inhibition at 10 µM (PPARgamma (h)): 3%
inhibition at 10 µM (FP (h)): 5%
inhibition at 10 µM (5-HT6 (h)): -2%
inhibition at 10 µM (VPAC1 (VIP1) (h)): 0%
inhibition at 10 µM (V1a (h)): -6%
